In ChEMBL document CHEMBL3132846 (Medchemcomm, 2014):
The source made the active and inactive calls. No cut-off for these calls is given here.

Assays:
CCRF S-180 [1] = experiment: Antitumor activity against mouse S180 cells allografted in ICR mouse assessed as tumor growth inhibition at 200 mg/kg, ig qd administered for 6 days relative to vehicle-treated control; format: functional; conditions: CCRF S-180, po, 144 h, route intragastric, read-out: TGI
Mus musculus = experiment: Toxicity in ICR mouse allografted with mouse S180 cells assessed as body weight loss at 200 mg/kg, ig qd administered for 6 days relative to vehicle-treated control; format: organism-based, CCRF S-180; design: dose 200 mg/kg, route intragastric; conditions: in vivo, po, 144 h
[2] = Cytotoxicity against human BGC823 cells after 48 hrs by MTT assay; format: functional, cell-based; conditions: BGC-823, 48 h
[3] = Cytotoxicity against human NCI-460 cells after 48 hrs by MTT assay; format: functional, cell-based; conditions: NCI-460, 48 h
[4] = Cytotoxicity against human Bel7402 cells after 48 hrs by MTT assay; format: functional, cell-based; conditions: Bel-7402, 48 h
MCF7 = experiment: Cytotoxicity against human MCF7 cells after 48 hrs by MTT assay; format: functional, cell-based; conditions: MCF7, 48 h
HL-60 = experiment: Cytotoxicity against human HL60 cells after 48 hrs by MTT assay; format: functional, cell-based; conditions: HL-60, 48 h
SiHa = experiment: Cytotoxicity against human SiHa cells after 48 hrs by MTT assay; format: functional, cell-based
HeLa = experiment: Cytotoxicity against human HeLa cells after 48 hrs by MTT assay; format: functional, cell-based
BeWo = experiment: Cytotoxicity against human Bewo cells after 48 hrs by MTT assay; format: functional, cell-based
A549 = experiment: Cytotoxicity against human A549 cells after 48 hrs by MTT assay; format: functional, cell-based; conditions: A549, 48 h
Ishikawa = experiment: Cytotoxicity against human Ishikawa cells after 48 hrs by MTT assay; format: functional, cell-based
HUVEC [5] = experiment: Antiangiogenic activity against HUVEC assessed as inhibition of cell migration at 10 ug/ml after 24 hrs by wound healing assay relative to control; format: functional; conditions: Homo sapiens
HUVEC [6] = experiment: Antiangiogenic activity against HUVEC assessed as inhibition of cell migration at 2.5 ug/ml after 24 hrs by wound healing assay relative to control; format: functional; conditions: Homo sapiens
HUVEC [7] = experiment: Antiangiogenic activity against HUVEC assessed as inhibition of tube formation at 12.5 ug/ml after 24 hrs relative to control; format: functional, cell-based; conditions: Homo sapiens
HUVEC [8] = experiment: Cytotoxicity against HUVEC assessed as mitochondrial metabolism after 48 hrs by MTT assay; format: cell-based, Homo sapiens; conditions: for IC50: Homo sapiens, HUVEC; for Activity: human, huvec
CCRF S-180 [9] = experiment: Antitumor activity against mouse S180 cells allografted in ICR mouse assessed as tumor growth inhibition at 30 mg/kg, ig qd administered for 6 days relative to vehicle-treated control; format: functional; conditions: CCRF S-180, po, 144 h, route intragastric, read-out: TGI
[10] = Cytotoxicity against human SKBR3 cells after 48 hrs by MTT assay; format: functional, cell-based; conditions: SK-BR-3, 48 h
[11] = Cytotoxicity against human JeKo1 cells after 48 hrs by MTT assay; format: functional, cell-based; conditions: JeKo-1, 48 h

Structure (SMILES) | inhibition in vivo at 200 mg/kg (CCRF S-180 [1]) [%] | Activity (Mus musculus) [%] | IC50 [2] [µM] | IC50 [3] [µM] | IC50 [4] [µM] | IC50 (MCF7) [µM] | IC50 (HL-60) [µM] | IC50 (SiHa) [µM] | IC50 (HeLa) [µM] | IC50 (BeWo) [µM] | IC50 (A549) [µM] | IC50 (Ishikawa) [µM] | inhibition at 10 µg/mL (HUVEC [5]) [%] | inhibition at 2.5 µg/mL (HUVEC [6]) [%] | Activity (HUVEC [7]) | IC50 (HUVEC [8]) [µM] | Activity (HUVEC [8]) | inhibition in vivo at 30 mg/kg (CCRF S-180 [9]) [%] | IC50 [10] [mg/L] | IC50 [11] [mg/L]
CCCNC(=O)Cc1cccc2c(=O)c3ccc(C)c(C)c3oc12 | 25.6 | 10.32 | > 100 | > 100 | > 100 | > 100 | > 100 | 92 | > 100 | > 100 | 28.9 | > 100 |  |  |  |  |  |  |  | 
Cc1ccc2c(=O)c3cccc(CC(=O)Nc4ccc(Cl)cc4)c3oc2c1C | 27.8 | 12.37 |  |  |  | > 100 | 67.6 | 46.6 | > 100 | 32 | 9.39 | > 100 | 65.8 | 45.6 | Active | 6.87 | Dose-dependent effect |  |  | 
Cc1ccc2c(=O)c3cccc(CC(=O)O)c3oc2c1C [VADIMEZAN] |  |  | > 100 | > 100 | > 100 | > 100 | > 100 | > 100 | > 100 | > 100 | > 100 | > 100 |  |  |  | > 20 |  | 76.2 |  | 
C/C=C/CC(=O)NNC(=O)Cc1cccc2c(=O)c3ccc(C)c(C)c3oc12 |  |  |  |  |  |  |  |  |  |  |  |  |  |  |  |  |  |  | > 10 | > 10
CCCCCC(=O)NNC(=O)Cc1cccc2c(=O)c3ccc(C)c(C)c3oc12 |  |  |  |  |  |  |  |  |  |  |  |  |  |  |  |  |  |  | > 10 | > 10
CCOC(=O)Cc1cccc2c(=O)c3ccc(C)c(C)c3oc12 | 4.04 | 8.5 |  |  |  |  |  |  |  |  |  |  |  |  |  |  |  |  |  | 
Cc1ccc2c(=O)c3cccc(CC(=O)N/N=C/c4ccccc4O)c3oc2c1C |  |  | > 100 | > 100 | > 100 | > 100 | 52.8 | > 100 | > 100 | 67.2 | 21.4 | > 100 |  |  |  |  |  |  | > 10 | > 10
Cc1ccc2c(=O)c3cccc(CC(=O)Nc4ccc(Cl)c(Cl)c4)c3oc2c1C | 29.6 | 12.87 |  |  |  | > 100 | 42.4 | 96.1 | 18.7 | > 100 | 92 | > 100 | 89.7 | 67.6 | Active | 6.4 | Dose-dependent effect |  |  | 
CC(C)=CCC(=O)NNC(=O)Cc1cccc2c(=O)c3ccc(C)c(C)c3oc12 |  |  |  |  |  |  |  |  |  |  |  |  |  |  |  |  |  |  | > 10 | > 10
Cc1ccc2c(=O)c3cccc(CC(=O)Nc4ccccc4)c3oc2c1C | 18.4 | 10.2 | > 100 | > 100 | > 100 | > 100 | 4.59 | > 100 | > 100 | > 100 | 77.6 | > 100 |  |  |  | > 20 |  |  |  | 
C#CCOC(=O)Cc1cccc2c(=O)c3ccc(C)c(C)c3oc12 |  |  | 81.5 | > 100 | > 100 | > 100 | > 100 | > 100 | > 100 | > 100 | > 100 | > 100 |  |  |  |  |  |  | > 10 | > 10
Cc1ccc2c(=O)c3cccc(CC(=O)Nc4cccc(Cl)c4)c3oc2c1C | 22.4 | 10.7 |  |  |  | > 100 | 91.2 | 36.1 | 25.4 | 66.5 | 10.8 | > 100 | 58.2 | 32.6 |  | 11.1 | Dose-dependent effect |  |  | 
Cc1ccc2c(=O)c3cccc(CC(=O)N/N=C/c4cc(Cl)ccc4O)c3oc2c1C |  |  | > 100 | > 100 | > 100 | > 100 | 20.8 | > 100 | 36.2 | 76.4 | 11.5 | 68.4 |  |  |  | > 20 |  |  | > 10 | > 10
Cc1ccc2c(=O)c3cccc(CC(=O)N/N=C/c4ccc5c(c4)OCO5)c3oc2c1C |  |  | > 100 | > 100 | > 100 | > 100 | > 100 | > 100 | > 100 | > 100 | 86.8 | > 100 |  |  |  |  |  |  |  | 
CCOC(=O)c1ccc(NC(=O)Cc2cccc3c(=O)c4ccc(C)c(C)c4oc23)cc1 |  |  | > 100 | > 100 | > 100 | > 100 | 90.9 | > 100 | > 100 | 45.5 | 39.6 | > 100 |  |  |  |  |  |  |  | 
COc1cccc(/C=N/NC(=O)Cc2cccc3c(=O)c4ccc(C)c(C)c4oc23)c1 |  |  | > 100 | > 100 | > 100 | > 100 | > 100 | > 100 | > 100 | 84.9 | 50.7 | > 100 |  |  |  |  |  |  |  | 
COc1ccc(/C=N/NC(=O)Cc2cccc3c(=O)c4ccc(C)c(C)c4oc23)cc1O |  |  | > 100 | > 100 | > 100 | > 100 | > 100 | > 100 | > 100 | > 100 | 54.9 | > 100 |  |  |  |  |  |  |  | 
CCC/C=C/C(=O)NNC(=O)Cc1cccc2c(=O)c3ccc(C)c(C)c3oc12 |  |  |  |  |  |  |  |  |  |  |  |  |  |  |  |  |  |  | > 10 | > 10
